What follows are molecules tested against T1, AKT1-E17K (Homo sapiens, UniProt P31749, E17K) (assay: NanoBRET Target Engagement (TE) Assay). Details: full length AKT E17K NanoLuc fusion in transfected HEK-293 cells; 2 hr equilibration with tracer and compound.
T1 construct: host or cells: HEK-293 (ATCC CRL-1573)
Assay type: cell-based
Excerpt: NanoBRET is a highly specific and validated cell-based technique for assessing target engagement (Vasta et al., 2018, Cell Chem Biol. 25(2):206-214). The NanoBRET™ Target Engagement (TE) Intracellular Kinase Assays are based on the NanoBRET™ System (Promega Corporation), an energy transfer technique designed to measure molecular proximity in living cells. The NanoBRET™ TE Assays measure the apparent affinity of test compounds by competitive displacement of the NanoBRET™ tracer compound, which is a cell permeable molecule engineered to be reversibly bound to a NanoLuc® luciferase-kinase fusion expressed in cells. For compound screening, when a test compound binds to the selected kinase, the BRET signal is attenuated. For kinase inhibitors in particular, intracellular target selectivity is fundamental to pharmacological mechanism and allows the proteins of interest to be in the correct cellular confirmation. Although non-cell-based techniques have been developed to measure kinase binding or enzymatic inhibition with accuracy and precision, such approaches can fail to accurately predict engagement of the full-length target protein in the more complex and biologically relevant cellular context (Knight and Shokat, 2005, Chem. Biol. 12, 621-637; Smyth and Collins, 2009, J. Chem. Biol. 2, 131-151). […] Briefly, HEK-293 cells (ATCC Cat #CRL-1573) were used for transfection purposes using FuGENE HD Transfection Reagent (Promega Cat #E2311). All cells were evaluated for viability prior to transfection and optimization of the transfection was done prior to experimentation. Greater than 95% viability was used for all experiments. Following transfection, cells were washed and resuspended in Opti-MEM. NanoBRET assays were performed in white, 384-well plates (Corning) at a density of 2×10^5 cells/well. All example compounds were prepared as concentrated stock solutions in DMSO (Sigma-Aldrich). Compounds are dissolved in DMSO to make 10 mM stock solution. Example compounds were transferred as 40 μL of 10 mM stock solution to a 384 pp-plate (LABCYTE, PP-0200) and diluted in 3-fold, 10-point dilution via transferring […] by Apricot liquid handler. A Labcyte ECHO 550 compound dispenser was used to facilitate compound transfer directly to cells. Cells were equilibrated for 2 hr with energy transfer probes and example compound prior to BRET measurements. The AKTE17K (Promega Cat #NV2421) as well as specific probe (NanoBRET tracer, Promega Cat #N264B) was prepared at a concentration of 20× in tracer dilution buffer (12.5 mM HEPES, 31.25% PEG-400, pH 7.5). For target engagement analysis, the energy transfer probes were added to the cells at concentrations optimized for the target in question (AKT E17K). Following compound incubation, NanoBRET NanoGlo Substrate (Promega Cat #N157D) and Extracellular Nanoluc Inhibitor (Promega Cat #N235C) was added according to the manufacturer's recommended protocol, and luminescence was measured on Envision Reader (Perkin Elmer) Multimode Luminometer equipped with 450 nmBPfilter (donor) and 600 nmLPfilter (acceptor), using 0.5 s integration time. Milli-BRET units (mBU) are calculated by multiplying the raw BRET values by 1000. Apparent tracer affinity values (EC50) were determined using the sigmoidal dose-response (variable slope). Competitive displacement data were then plotted and data were fit to determine the EC50 value for each example compound.

T1 sequence (P31749 whole entry E17K, the tested form may be a part): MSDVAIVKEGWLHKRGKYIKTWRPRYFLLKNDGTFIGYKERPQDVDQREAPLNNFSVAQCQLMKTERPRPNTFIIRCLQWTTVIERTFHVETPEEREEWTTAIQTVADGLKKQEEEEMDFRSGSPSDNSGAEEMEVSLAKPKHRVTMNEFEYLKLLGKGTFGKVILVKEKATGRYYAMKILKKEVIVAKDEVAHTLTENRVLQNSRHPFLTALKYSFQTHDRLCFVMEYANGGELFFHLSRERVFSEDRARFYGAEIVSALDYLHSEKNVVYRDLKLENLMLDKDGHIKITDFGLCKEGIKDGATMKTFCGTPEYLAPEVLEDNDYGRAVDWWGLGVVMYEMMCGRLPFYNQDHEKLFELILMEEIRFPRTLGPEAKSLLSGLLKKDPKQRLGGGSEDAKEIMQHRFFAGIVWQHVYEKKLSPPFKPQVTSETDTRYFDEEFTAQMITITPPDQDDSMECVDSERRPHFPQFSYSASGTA

| Structure (SMILES) | IC50 [nM] |
| --- | --- |
| N#CN1CCN(Cc2ccc(-n3c(-c4cccnc4N)nc4ccc(-c5ccccc5)nc43)cc2)CC1 [Example 2, 4-(4-(2-(2-Aminopyridin-3-yl)-5-phenyl-3H-imidazo[4,5-b]pyridin-3-yl)benzyl)piperazine-1-carbonitrile] | > 600 |
| C[C@@H]1CN(Cc2ccc(-n3c(-c4cccnc4N)nc4ccc(-c5ccccc5)nc43)cc2)CCN1C#N [Example 27, (R)-4-(4-(2-(2-Aminopyridin-3-yl)-5-phenyl-3H-imidazo[4,5-b]pyridin-3-yl)benzyl)-2-methylpiperazine-1-carbonitrile] | > 600 |
| N#CN1CCC2(CC1)CN(Cc1ccc(-n3c(-c4cccnc4N)nc4ccc(-c5ccccc5)nc43)cc1)C2 [Example 22, 2-(4-(2-(2-Aminopyridin-3-yl)-5-phenyl-3H-imidazo[4,5-b]pyridin-3-yl)benzyl)-2,7-diazaspiro[3.5]nonane-7-carbonitrile] | 60 to 600 |
| N#CN1C[C@@H]2CN(Cc3ccc(-n4c(-c5cccnc5N)nc5ccc(-c6ccccc6)nc54)cc3)C[C@@H]2C1 [Example 43, (3aR,6aS)-5-(4-(2-(2-Aminopyridin-3-yl)-5-phenyl-3H-imidazo[4,5-b]pyridin-3-yl)benzyl)hexahydropyrrolo[3,4-c]pyrrole-2(1H)-carbonitrile] | 60 to 600 |
| N#CN1CCCC2(CCN(Cc3ccc(-n4c(-c5cccnc5N)nc5ccc(-c6ccccc6)nc54)cc3)C2)C1 (stereo not shown) [Example 21, 2-(4-(2-(2-Aminopyridin-3-yl)-5-phenyl-3H-imidazo[4,5-b]pyridin-3-yl)benzyl)-2,7-diazaspiro[4.5]decane-7-carbonitrile] | > 600 |
| C[C@@H]1CN(Cc2ccc(-n3c(-c4cccnc4N)nc4ccc(-c5ccccc5)nc43)cc2)C[C@H](C)N1C#N [Example 36, (2S,6R)-4-(4-(2-(2-Aminopyridin-3-yl)-5-phenyl-3H-imidazo[4,5-b]pyridin-3-yl)benzyl)-2,6-dimethylpiperazine-1-carbonitrile] | > 600 |
| N#CN1CCC2(CC1)CCN(Cc1ccc(-n3c(-c4cccnc4N)nc4ccc(-c5ccccc5)nc43)cc1)C2 [Example 20, 2-(4-(2-(2-Aminopyridin-3-yl)-5-phenyl-3H-imidazo[4,5-b]pyridin-3-yl)benzyl)-2,8-diazaspiro[4.5]decane-8-carbonitrile] | 15 to 60 |
